For this experiment, the target named is T1, gastrin (CCK2) receptors (Rattus norvegicus, UniProt P30553).
T1 construct: The stomach was excised and flushed with ca. 1 ml of unbuffered physiological saline solution; from tissue; host or cells: isolated, lumen-perfused stomach of immature rats (33-50 g, ca. 21 days old)
T1 sequence (P30553 1-452): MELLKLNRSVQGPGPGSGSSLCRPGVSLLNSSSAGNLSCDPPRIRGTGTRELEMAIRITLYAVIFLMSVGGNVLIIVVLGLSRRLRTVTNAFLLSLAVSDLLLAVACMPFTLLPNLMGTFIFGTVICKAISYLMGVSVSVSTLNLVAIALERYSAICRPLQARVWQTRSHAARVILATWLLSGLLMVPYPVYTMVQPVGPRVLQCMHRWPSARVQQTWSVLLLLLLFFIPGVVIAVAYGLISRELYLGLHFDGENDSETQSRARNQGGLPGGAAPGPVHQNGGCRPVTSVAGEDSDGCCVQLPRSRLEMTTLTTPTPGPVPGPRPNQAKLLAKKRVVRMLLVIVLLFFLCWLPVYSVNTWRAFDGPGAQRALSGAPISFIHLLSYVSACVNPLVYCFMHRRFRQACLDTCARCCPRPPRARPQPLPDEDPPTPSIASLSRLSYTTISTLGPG
The experiment in a line: immature rat stomach assay, gastrin (CCK2) antagonist activity against pentagastrin-stimulated acid secretion. The format is cell-based. The conditions noted are these: isolated immature rat stomach, pentagastrin dose-response curves, 60 min after drug addition; for Kb: read-out: Rat Stomach pKB (converted). On the procedure:
The compounds of the examples were tested for gastrin (CCK2) antagonist activity in an immature rat stomach assay. The procedure was as follows:
The oesophagus of immature rats (33-50 g, ca. 21 days old) was ligated at the level of the cardiac sphincter and the duodenal sphincter was cannulated. The stomach was excised and flushed with ca. 1 ml of unbuffered physiological saline solution. The fundus was punctured and cannulated. A further 4-5 ml of unbuffered solution was flushed through the stomach to ensure the preparation was not leaking. The stomach was lowered into a jacketed organ bath containing 40 ml of buffered solution containing 3×10^−8 M 5-methylfurmethide, maintained at 37° and gassed vigorously with 95% O2/5% CO2. The stomach was continuously perfused at a rate of 1 ml min^−1 with unbuffered solution gassed with 100% O2 with the perfusate passing over an internally referenced pH-electrode fixed 12 cm above the stomach.
After 120 min of stabilisation the drugs were added directly to the serosal solution in the organ bath and after a further 60 min cumulative pentagastrin dose-response curves were started. Changes in acid secretion were monitored and the curves analysed according to Black et al., Br. J. Pharmacol., 1985, 86, 581.

Consider “3-{[3-(Adamantan-1-yloxymethyl)-3-phenyl-1-o-tolyl-1H-pyrazole-4-carbonyl]-amino}-benzoic acid [Example 2]”, for which the “Rat Stomach pKB” value amounted to 5.66 ± 0.24.
Regarding `Cc1ccccc1-n1nc(COC23CC4CC(CC(C4)C2)C3)c(C(=O)Nc2cccc(C(=O)O)c2)c1O` [Example 3, 3-{[3-(Adamantan-1-yloxymethyl)-5-hydroxy-1-o-tolyl-1H-pyrazole-4-carbonyl]-amino}-benzoic acid], the Kb was 19.1 nM.
On the same count and under the same terms, for `O=C(O)c1cccc(NC(=O)c2c(COC34CC5CC(CC(C5)C3)C4)nn(C3CCCCC3)c2O)c1` [Example 4, 3-{[3-(Adamantan-1-yloxymethyl)-1-cyclohexyl-5-hydroxyl-1H-pyrazole-4-carbonyl]-amino}-benzoic acid] the value was 30.9 nM; for `COc1c(C(=O)Nc2cccc(C(=O)O)c2)c(COC23CC4CC(CC(C4)C2)C3)nn1C1CCCCC1` [Example 5, 3-{[3-(Adamantan-1-yloxymethyl)-1-cyclohexyl-5-methoxy-1H-pyrazole-4-carbonyl]-amino}-benzoic acid], 170 nM; for `Cn1c(COC23CC4CC(CC(C4)C2)C3)c(C(=O)Nc2cccc(C(=O)O)c2)c(=O)n1C1CCCCC1` [Example 6, 3-{[5-(Adamantan-1-yloxymethyl)-2-cyclohexyl-1-methyl-3-oxo-2,3-dihydro-1H-pyrazole-4-carbonyl]-amino}-benzoic acid], 269 nM.

For the origin of these results see patent US6956053B2, “Pyrazole derivatives and their use as gastrin and cholecystokin receptor ligands” (The James Black Foundation Limited, priority 2000, dated 2005).
